According to PMC2922868 (ACS medicinal chemistry letters, 2010):
“Also recorded” adds a separate entry of the source. Like-named read-outs stand apart in the source and are kept apart here.

Assays:
Hsp90-IP6K2 interaction [1] = conditions: ref [17], cited from earlier work
Hsp90-IP6K2 pathway = conditions: ref [17]; cited from earlier work
Hsp90-FKBP52 interaction = conditions: not tested in this paper; reference not given; cited from earlier work
Hsp90-IP6K2 interaction [2] = experiment: in vitro pull down binding assay, Hsp90-IP6K2
[3] = tested on: IP6K2 over expressed (K2-O/E) HEK 293 cells; experiment: cell survival, IP6K2 over expressed vs wild-type HEK 293 cells; type: cell-based; conditions: 48 hours, CCK-8
[4] = tested on: full length Hsc82 (yeast variant of Hsp90); experiment: pull-down with San A-amide-Biotin, Hsc82 full length; type: binding; conditions: San A-amide-Biotin as probe, His-fusion, Figure 5 lane 6
[5] = tested on: N-terminal domain of Hsc82 (yeast variant of Hsp90); experiment: pull-down with San A-amide-Biotin, Hsc82 N-terminal domain; type: binding; conditions: San A-amide-Biotin as probe, His-fusion, Figure 5 lane 2
[6] = tested on: middle domain of Hsc82 (yeast variant of Hsp90); type: binding; conditions: pull-down, San A-amide-Biotin as probe; His-fusion; Figure 5 lane 3
[7] = tested on: C-terminal domain of Hsc82 (yeast variant of Hsp90); experiment: pull-down with San A-amide-Biotin, Hsc82 C-terminal domain; type: binding; conditions: San A-amide-Biotin as probe, His-fusion, Figure 5 lane 4
[8] = tested on: N-middle domain of Hsc82 (yeast variant of Hsp90); experiment: pull-down with San A-amide-Biotin, Hsc82 N-middle construct; type: binding; conditions: San A-amide-Biotin as probe, His-fusion, Figure 5 lane 5
Hsp90 = Hsp90 ATPase activity / ATP hydrolysis; type: biochemical; conditions: Supplementary data, Figure S7
[9] = ref [6], [8]; cited from earlier work

Row | Molecule | IP6K2 binding inhibition at 10 μM (in words) (Hsp90-IP6K2 interaction [1]; 10 μM) | effect on IP6K2 binding to Hsp90 (in words) (Hsp90-IP6K2 interaction [1]) | effect on IP6K2 binding to Hsp90 (in words) (Hsp90-IP6K2 interaction [1]; listed as 17AAG) | effect on Hsp90-IP6K2 pathway (in words) (Hsp90-IP6K2 pathway) | EC50 (Hsp90-IP6K2 interaction [1]; read-out: EC50, inhibition of IP6K2 binding to Hsp90) [µM] | effect on Hsp90-FKBP binding (in words) (Hsp90-FKBP52 interaction) | effectiveness relative to novobiocin, IP6K2 binding (in words) (Hsp90-IP6K2 interaction [2]; EC50 ~1 μM vs ~100 μM for novobiocin (ref [17])) | inhibition of IP6K2 binding to Hsp90 (in words) (Hsp90-IP6K2 interaction [2]; native Hsp90 from HeLa cells, His-IP6K2, 0-10 μM) | fold potency over Novobiocin at inhibiting C-terminal client proteins (Hsp90-IP6K2 interaction [2]; versus Novobiocin) | fold change in survival difference, with drug vs no drug (3% vs 27% change) ([3]; 25 μM San A-amide, K2-O/E vs wild type HEK 293) | change in cell survival, K2-O/E compared to wild type (control) ([3]; 25 μM San A-amide, change without drug 3%) [%] | cell survival in K2-O/E compared to wild type (in words) ([3]; 25 μM) | induction of cell death through the Hsp90-IP6K2 pathway (in words) ([3]; 25 μM, HEK 293) | binding to full length Hsc82 [4] | binding to N-terminal domain [5] | binding to middle domain [6] | binding to C-terminal domain [7] | binding to N-middle construct [8] | effect on ATP hydrolysis by Hsp90 (Hsp90) | apoptosis (in words) [9]
1 | C=CCNC1=C2C[C@@H](C)C[C@H](OC)[C@H](O)[C@@H](C)/C=C(\C)[C@H](OC(N)=O)[C@@H](OC)/C=C\C=C(/C)C(=O)NC(=CC1=O)C2=O [17-AAG, 17-allylamino, 17-demethoxygeldanamycin] | not inhibited | did not affect the binding of IP6K2 | FKBP and IP6K2 binding to Hsp90 are not affected | did not affect this pathway | – | – | – | – | – | – | – | – | – | – | – | – | – | – | – | –
2 | CO[C@@H]1[C@@H](OC(N)=O)[C@@H](O)[C@H](Oc2ccc3c(O)c(NC(=O)c4ccc(O)c(CC=C(C)C)c4)c(=O)oc3c2C)OC1(C)C [novobiocin] | – | only disrupts Hsp90-IP6K2 | – | – | ~100 | not FKBP binding | – | – | – | – | – | – | – | – | – | – | – | – | – | –
3 | Sansalvamide A-amide [San A-amide] | – | – | – | – | – | – | significantly more effective binding inhibitor | able to block both Hsp90-IP6K2 and Hsp90-FKBP interactions; also recorded: blocks the binding of Hsp90 to a client protein; also recorded: inhibits the binding of the C-terminal interacting protein, IP6K2, to Hsp90 | over 100 fold | ~ 9 fold | 27 | cell survival is substantially decreased in cells that over-express IP6K2 compared to wild type cells | induces cell death, at least in part, through the Hsp90-IP6K2 pathway | bound to full length Hsp90 | only a marginally detectable interaction | partial affinity | no affinity | optimal affinity; also recorded: specifically binds to the N-middle domain of Hsp90 | no affect on ATP hydrolysis | shown to cause apoptosis
